We go through eleven compounds from PubChem BioAssay (NCI).

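All cell lines were grown in 96-well plates and treated with compound for 48 hours. Here, GI50 denotes the concentration required for 50% inhibition of growth. TGI is the concentration that stops growth completely.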 Where a SMILES comes first, the peptide text is derived from it. [ ]: non-standard residue; d: D form. The star is where a group is joined. ξ: configuration not given here. 4Abz = Nc1ccc(C(=O)O)cc1; ξL = CC(C)CC(N)C(=O)O; NHOH = ON*

Holding throughout (test): DTP human tumour cell line panel, 48 h
Assay [1] deals with KM12 colon.
Assay [2] deals with NCI-H226 lung.
The test system of assay [3] is MOLT-4 leukemia.
The test system of assay [4] is TK-10 renal.
Assay [5] deals with COLO 205 colon.
The test system of assay [6] is UACC-62 melanoma.
Assay [7] has as its system SF-539 CNS.
For assay [8], the system named is HCC-2998 colon.
Assay [9] relates to NCI-H522 lung.
The subject of assay [10] is HOP-92 NSCLC.

What is called TGI is the concentration giving total growth inhibition. Higher therefore signals lower sensitivity of the cells. For `Cc1cc(C)cc(NC(=O)CCC(=O)C2CCC/C2=N\NC(=O)C(=O)NN)c1` (centres undefined), the TGI in assay [1], in assay [2], in assay [3], in [4], in [5] and in assay [6] was above 100 µM in each case. Further, the TGI in assay [7] and in assay [8] was above 100 µM each time.
For the compound `Clc1cc(Cl)c2n[se]nc2c1`, the TGI in [1], in [3], in assay [4], in assay [6], in [9] and in [7] was above 100 µM throughout. Moreover, in assay [8], the concentration for total growth inhibition (TGI) is above 100 µM.
In general, GI50 refers to the concentration that inhibits growth by half. `CC(=N\O)/C(C)=N/O.CC(=N\O)/C(C)=N/O.[Pd]`: the GI50 was 2.79 µM in assay [1]; above 10 µM in [2]; above 10 µM in assay [3]; 4.57 µM in assay [4]; 3.84 µM in [5]; 2.11 µM in assay [6]. For the same compound, the GI50 in assay [9] is 2.08 µM; in assay [7] it was 2.77 µM; in assay [8] it was above 10 µM. Further, the concentration for total growth inhibition (TGI) is 8.01 µM in assay [1]; above 10 µM in assay [2]; above 10 µM in assay [3]; above 10 µM in assay [4]; above 10 µM in assay [5]; 5.75 µM in assay [6]. Also, the figures for the TGI in assay [9], in [7] and in assay [8] were 5.03 µM, 6.1 µM and above 10 µM, respectively.
Turning to `O=c1c2ccccc2oc2nccnc12`, the TGI in assay [1], in assay [3], in assay [4], in [5], in assay [6] and in assay [7] was above 100 µM each time. This compound gave a TGI in assay [8] above 100 µM.
Take `CCSc1sc(-c2ccc(C)cc2)nc1[P+](c1ccccc1)(c1ccccc1)c1ccccc1`: the GI50 was 0.281 µM in [1]; 0.391 µM in [3]; 0.271 µM in assay [4]; 0.292 µM in [6]; 0.174 µM in [10]; 0.304 µM in [9]. Also, the GI50 was 0.394 µM in [7] and 0.47 µM in [8]. Besides, the TGI in assay [1] was 1.16 µM; in assay [3], 1.87 µM; in assay [4], 1.48 µM; in assay [6], 1.24 µM; in assay [10] it was 0.593 µM; in assay [9], 1.23 µM. Moreover, the figures for the total growth inhibition concentration (TGI) in assay [7] and in assay [8] were 1.53 µM and 1.62 µM, respectively.
On to `CC(C)CC(NC(=O)[C@@H]1CCCN1C(=O)CNC(=O)c1ccc(N)cc1)C(=O)N[C@H](C)C(=O)NO` (some centres undefined) (H-[4Abz]GP[ξL][dA]-{NHOH}), for which the GI50 in assay [1], in assay [2], in [3], in assay [4], in assay [5] and in assay [6] was above 100 µM in each case. Also, the GI50 in [9], in assay [7] and in assay [8] was above 100 µM in each case. The TGI in assay [1], in assay [2], in assay [3], in assay [4], in [5] and in [6] was above 100 µM in each case. Also, the TGI in assay [9], in assay [7] and in assay [8] was above 100 µM each time.
For the compound `COC(=O)c1ccc2n[se]nc2c1`, the TGI in assay [1], in assay [3], in assay [4], in [6], in assay [9] and in [7] was above 100 µM each time. The TGI in assay [8] is above 100 µM.
For the compound `COc1ncn(C2C=C(CO)C(O)C2O)c(=O)n1` (centres undefined), the TGI in assay [1], in [2], in [3], in assay [4], in assay [5] and in assay [6] was above 100 µM in each case. The TGI in assay [9], in assay [7] and in assay [8] was above 100 µM each time.
As to `C[N+](C)(C)CC(=O)NC(=O)N/N=C\C(CC#N)CN(Cc1ccccc1)Cc1ccccc1` (centres undefined), the TGI in assay [1], in [2], in assay [3], in assay [4], in [5] and in [6] was above 100 µM in each case. In addition, the total growth inhibition concentration (TGI) in assay [9], in [7] and in assay [8] was above 100 µM each time.
In the case of `O=C1c2cc(Br)ccc2-c2c1c1ccccc1c(=O)n2CCCCl`, the GI50 in assay [1] is 16.6 µM; in [3] it was 3.07 µM; in assay [6], 5.65 µM; in assay [10] it was 12.7 µM; in assay [9] it was 39.8 µM; in [7] it was 25.1 µM. Besides, the GI50 in assay [8] is 14.1 µM. Further, the TGI was above 100 µM in [1]; 8.6 µM in assay [3]; 22.3 µM in [6]; 46.2 µM in [10]; above 100 µM in assay [9]; 68.5 µM in assay [7]. The concentration for total growth inhibition (TGI) in [8] came out at 71.5 µM.
`COc1ccc(-c2ccc(/C=N/n3cnn(CN4CCN(C)CC4)c3=S)o2)c([N+](=O)[O-])c1`: the GI50 in assay [1] is 33.3 µM; in assay [3] it was 31.2 µM; in [4] it was 36.4 µM; in [5], 52.8 µM; in assay [6], 16.1 µM; in [10], 17.1 µM. Besides, the GI50 in assay [9] was 45 µM; in assay [7], 17 µM. In addition, the TGI was above 100 µM in [1]; above 100 µM in assay [3]; above 100 µM in [4]; above 100 µM in assay [5]; 40 µM in assay [6]; 58.4 µM in assay [10]. For the same compound, the total growth inhibition concentration (TGI) in assay [9] is above 100 µM; in assay [7], 34.1 µM.
